Data as given in patent US20250195521A1 (Revolution Medicines, Inc., priority 2020, published 2025).
Like-named read-outs stand apart in the source and are kept apart here.

Assays:
[1] = system: K-Ras G12C (NCI-H358 cells); test: Potency assay: pERK in NCI-H358 cells; type: cell-based, human; conditions: read-out: pERK EC50 (H358 KRAS G12C)
Method in brief: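 Cells plated the day before were exposed for 4 h at 37° C, 5% CO2 to a 10-point, 3-fold DMSO dilution series (10 mM top stock), in duplicate. Phospho-ERK was read by AlphaLISA SureFire Ultra or by In-Cell Western with DRAQ5 DNA stain, and IC50 came from a 4-parameter sigmoidal fit.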

KRAS WT = KRAS WT (Homo sapiens (Human), UniProt P01116+P62937); test: Ras-Raf disruption/FRET/MOA assay (BRAF RBD, Cyclophilin A); type: biochemical; conditions: read-out: KRAS WT FRET data IC50
Sequence of KRAS WT (P01116 other isoform, or with tags, fused parts or gaps): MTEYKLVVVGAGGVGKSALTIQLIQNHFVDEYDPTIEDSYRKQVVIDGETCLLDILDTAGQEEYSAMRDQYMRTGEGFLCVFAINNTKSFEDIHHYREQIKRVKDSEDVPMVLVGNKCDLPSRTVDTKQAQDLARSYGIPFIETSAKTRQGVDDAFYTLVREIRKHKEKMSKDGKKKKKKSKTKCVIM
Sequence of KRAS WT (P62937 whole entry): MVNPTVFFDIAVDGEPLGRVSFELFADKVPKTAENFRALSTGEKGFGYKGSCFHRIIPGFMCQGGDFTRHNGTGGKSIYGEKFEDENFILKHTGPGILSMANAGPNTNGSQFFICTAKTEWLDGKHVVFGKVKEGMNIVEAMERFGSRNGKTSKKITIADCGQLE
Method in brief: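 25 μM tagless Cyclophilin A, 12.5 nM His6-Ras-GMPPNP and 50 nM GST-BRAF RBD in HEPES pH 7.3 buffer with 5 mM MgCl2, with compound (10-point 3-fold series from 30 μM final) for 3 h at 25 °C. Anti-His Eu and anti-GST APC then added for 1.5 h. IC50 from TR-FRET ratio decrease versus DMSO.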

[2] = system: Capan-1 cells (K-Ras G12V); test: CellTiter-Glo cell viability, Capan-1; type: cell-based, human; conditions: read-out: Capan-1 Cell Viability IC50
Method in brief: (§1)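 Five-day treatment of K-Ras mutant cells with directly dispensed compound; ATP-based luminescence endpoint. Percent of DMSO signal fit to four-parameter logistic curve.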

NCI-H358 (K-Ras G12C) = test: CellTiter-Glo cell viability assay, NCI-H358; type: cell-based, human
Method in brief: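 Five-day compound treatment of NCI-H358 cells, then CellTiter-Glo luminescence, percent of DMSO, four-parameter logistic fit.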

[3] = system: NCI-H358 cells (K-Ras G12C); test: CellTiter-Glo cell viability, NCI-H358; type: cell-based, human; conditions: K-Ras G12C, 5-day treatment; read-out: H358 Cell Viability IC50
Method in brief: as §1

[4] = Homo sapiens, NCI-H358 cells, 4 hours
[5] = Homo sapiens, CAPAN-1, 120 h, K-Ras G12V, 5-day treatment
[6] = Homo sapiens, NCI-H358, 120 h, 5-day treatment, read-out: H358 Cell Viability assay data (K-Ras G12C, IC50)
[7] = 5-day treatment, read-out: H358 Cell Viability assay data (K-Ras G12C, IC50)

SMILES | EC50 [1, 4] | IC50 (KRAS WT) | IC50 (NCI-H358 (K-Ras G12C); [6]) | IC50 [2, 5] | other results
CCn1c(-c2cccnc2[C@H](C)OC)c2c3cc(ccc31)-c1cccc(c1)C[C@H](NC(=O)[C@H](C(C)C)N(C)C(=O)[C@H]1CCNC1)C(=O)N1CCC[C@H](N1)C(=O)OCC(C)(C)C2 [Compound A119] | < 5000 nM | 1000 to 10000 nM | – | > 10000 nM | –
CCn1c(-c2cccnc2[C@H](C)OC)c2c3cc(ccc31)-c1cc(cc3nc[nH]c13)C[C@H](NC(=O)[C@H](C(C)C)N(C)C(C)=O)C(=O)N1CCC[C@H](N1)C(=O)OCC(C)(C)C2 [Compound A153] | < 5000 nM | > 10000 nM | 0.1 to 1 µM | > 10000 nM | –
CCn1c(-c2cccnc2[C@H](C)OC)c2c3cc(ccc31)-c1cc(cc(S(C)(=O)=O)c1)C[C@H](NC(=O)[C@H](C(C)C)N(C)C(C)=O)C(=O)N1CCC[C@H](N1)C(=O)OCC(C)(C)C2 [Compound A154] | < 5000 nM | > 10000 nM | 0.01 to 0.1 µM | > 10000 nM | –
CCn1c(-c2cccnc2[C@H](C)OC)c2c3cc(ccc31)-c1cc(O)cc(c1)C[C@H](NC(=O)[C@H](C(C)C)N(C)C(=O)[C@H]1CCN(C3CC3)C1)C(=O)N1CCC[C@H](N1)C(=O)OCC(C)(C)C2 [Compound A175] | < 5000 nM | 1000 to 10000 nM | < 0.01 µM | 1000 to 10000 nM | –
CCn1c(-c2cccnc2[C@H](C)OC)c2c3cc(ccc31)-c1csc(n1)C[C@H](NC(=O)[C@H](C(C)C)N(C)C(=O)[C@H]1CCN(S(C)(=O)=O)C1)C(=O)N1CCC[C@H](N1)C(=O)OCC(C)(C)C2 [Compound A237] | – | 1000 to 10000 nM | – | – | EC50 ([1]; Homo sapiens, NCI-H358, 4 h): < 5000 nM; IC50 (NCI-H358 (K-Ras G12C); Homo sapiens, NCI-H358, 120 h, read-out: H358 Cell Viability assay data (K-Ras G12C, IC50, uM), 5-day treatment): < 0.01 µM; IC50 ([2]; Homo sapiens, CAPAN-1, 120 h): 1000 to 10000 nM
CCn1c(-c2cnccc2COC)c2c3cc(ccc31)-c1cc(O)cc(c1)C[C@H](NC(=O)[C@H](C(C)C)N(C)C(=O)N1CCNCC1)C(=O)N1CCC[C@H](N1)C(=O)OCC(C)(C)C2 [Compound A255] | < 5000 nM | 100 to 1000 nM | < 0.01 µM | > 10000 nM | –
CCn1c(-c2cccnc2[C@H](C)OC)c2c3cc(ccc31)-c1csc(n1)C[C@H](NC(=O)[C@H](C(C)C)N(C)C(=O)N1C[C@H](C)N(C)C[C@H]1C)C(=O)N1CCC[C@H](N1)C(=O)OCC(C)(C)C2 [Compound A300] | < 5000 nM | 1000 to 10000 nM | – | 1000 to 10000 nM | –
CCn1c(-c2cccnc2[C@H](C)OC)c2c3cc(ccc31)-c1cc(O)cc(c1)C[C@H](NC(=O)[C@@H]1[C@@H](C)CCCN1C(C)=O)C(=O)N1CCC[C@H](N1)C(=O)OCC(C)(C)C2 [Compound A324] | < 5000 nM | 100 to 1000 nM | < 0.01 µM | 1000 to 10000 nM | –
CCn1c(-c2cccnc2[C@H](C)OC)c2c3cc(ccc31)-c1csc(n1)C[C@H](NC(=O)[C@H](C(C)C)N(C)C(=O)N1CC(N3CCOCC3)C1)C(=O)N1CCC[C@H](N1)C(=O)OCC(C)(C)C2 [Compound A338] | < 5000 nM | 100 to 1000 nM | 0.01 to 0.1 µM | 10 to 100 nM | –
CCn1c(-c2cc(N3CCN(C)CC3)cnc2[C@H](C)OC)c2c3cc(ccc31)-c1nc(co1)C[C@H](NC(=O)[C@H]1[C@H](C)[C@@H]1C)C(=O)N1CCC[C@H](N1)C(=O)OCC(C)(C)C2 [Compound A391, (1r,2R,3S)—N-((6^3S,4S,Z)-1^1-ethyl-1^2-(2-((S)-1-methoxyethyl)-5-(4-methylpiperazin-1-yl)pyridin-3-yl)-10,10-dimethyl-5,7-dioxo-6^1,6^2,6^3,6^4,6^5,6^6-hexahydro-1^1H-8-oxa-2 (2,4)-oxazola-1 (5,3)-indola-6 (1,3)-pyridazinacycloundecaphane-4-yl)-2,3-dimethylcyclopropane-1-carboxamide] | – | – | – | – | IC50 [3]: 10 to 100 nM; EC50 ([1]; NCI-H358 cells, 4 hours): < 5000 nM; IC50 (NCI-H358 (K-Ras G12C); [7]): < 0.01 µM; IC50 ([2]; K-Ras G12V, 5-day treatment): 1000 to 10000 nM
CCn1c(-c2cccnc2[C@H](C)OC)c2c3cc(ccc31)-c1cc(O)cc(c1)C[C@H](NC(=O)[C@H](C(C)C)N(C)C(=O)[C@H]1OCC[C@H]1c1ccccc1)C(=O)N1CCC[C@H](N1)C(=O)OCC(C)(C)C2 [Compound A425] | < 5000 nM | 1000 to 10000 nM | < 0.01 µM | – | –
CCn1c(-c2cccnc2[C@H](C)OC)c2c3cc(ccc31)-c1csc(n1)C[C@H](NC(=O)[C@H](C(C)C)N(C)C(=O)N1CC[C@H]1CN)C(=O)N1CCC[C@H](N1)C(=O)OCC(C)(C)C2 [Compound A463] | < 5000 nM | 100 to 1000 nM | < 0.01 µM | 1000 to 10000 nM | –
CCn1c(-c2cc(N3CCN(C)CC3)cnc2[C@H](C)OC)c2c3cc(ccc31)-c1csc(n1)C[C@H](NC(=O)[C@H](C(C)C)N(C)C(=O)N1CC(OC)C1)C(=O)N1CCC[C@H](N1)C(=O)OCC(C)(C)C2 [Compound A466] | < 5000 nM | 100 to 1000 nM | < 0.01 µM | – | –
CCn1c(-c2cccnc2[C@H](C)OC)c2c3cc(ccc31)-c1csc(n1)C[C@H](NC(=O)[C@H](C(C)C)N(C)C(=O)N1CC[C@]3(CCNC3=O)C1)C(=O)N1CCC[C@H](N1)C(=O)OCC(C)(C)C2 [Compound A479] | < 5000 nM | 1000 to 10000 nM | < 0.01 µM | 1000 to 10000 nM | –
CCn1c(-c2cccnc2[C@H](C)OC)c2c3cc(ccc31)-c1csc(n1)C[C@H](NC(=O)[C@H](C(C)C)N(C)C(=O)N1CCC13CCS(=O)(=O)CC3)C(=O)N1CCC[C@H](N1)C(=O)OCC(C)(C)C2 [Compound A530] | < 5000 nM | 100 to 1000 nM | 0.01 to 0.1 µM | 100 to 1000 nM | –
CCn1c(-c2cccnc2[C@H](C)OC)c2c3cc(ccc31)-c1csc(n1)C[C@H](NC(=O)[C@H](C(C)C)N(C)C(=O)N1CC[C@@H]1CN)C(=O)N1CCC[C@H](N1)C(=O)OCC(C)(C)C2 [Compound A558] | < 5000 nM | 10 to 100 nM | 0.01 to 0.1 µM | 100 to 1000 nM | –

More lines, main results first:

EC50 [1, 4] | IC50 (KRAS WT) | IC50 (NCI-H358 (K-Ras G12C); [6]) | SMILES | IC50 [2, 5] | other results
< 5000 nM | 1000 to 10000 nM | 0.1 to 1 µM | CCn1c(-c2cccnc2[C@H](C)OC)c2c3cc(ccc31)-c1cc(O)cc(c1)C[C@H](NC(=O)C(=C(C)C)N(C)C(C)=O)C(=O)N1CCC[C@H](N1)C(=O)OCC(C)(C)C2 [Compound A142] | > 10000 nM | –
< 5000 nM | 1000 to 10000 nM | < 0.01 µM | CCn1c(-c2cccnc2[C@H](C)OC)c2c3cc(ccc31)-c1cc(O)cc(c1)C[C@H](NC(=O)C1CCC3C1C3(F)F)C(=O)N1CCC[C@H](N1)C(=O)OCC(C)(C)C2 (some centres unmarked) [Compound A181] | > 10000 nM | IC50 (NCI-H358 (K-Ras G12C); [7]): 0.01 to 0.1 µM
< 5000 nM | 1000 to 10000 nM | 0.01 to 0.1 µM | CCn1c(-c2cccnc2[C@H](C)OC)c2c3cc(ccc31)-c1cc(O)cc(c1)C[C@H](NC(=O)[C@@H]1[C@H]3C[C@H]3CN1C(C)=O)C(=O)N1CCC[C@H](N1)C(=O)OCC(C)(C)C2 [Compound A207] | > 10000 nM | –
< 5000 nM | 1000 to 10000 nM | < 0.01 µM | CCn1c(-c2cccnc2[C@H](C)OC)c2c3cc(ccc31)-c1cccc(c1)C[C@H](NC(=O)[C@H](C(C)C)N(C)C(=O)C1COC1)C(=O)N1CCC[C@H](N1)C(=O)OCC(C)(C)C2 [Compound A246] | 1000 to 10000 nM | –
< 5000 nM | 10 to 100 nM | 0.01 to 0.1 µM | CCn1c(-c2cccnc2[C@H](C)OC)c2c3cc(ccc31)-c1cc(O)cc(c1)C[C@H](NC(=O)[C@H](C(C)C)N(C)C(=O)C1CC(=O)N(C3CC3)C1)C(=O)N1CCC[C@H](N1)C(=O)OCC(C)(C)C2 (some centres unmarked) [Compound A252] | 100 to 1000 nM | –
< 5000 nM | 10 to 100 nM | < 0.01 µM | CCn1c(-c2cccnc2[C@H](C)OC)c2c3cc(ccc31)-c1csc(n1)C[C@H](NC(=O)[C@H](C(C)C)N(C)C(=O)N1CCN(C(C)=O)CC1)C(=O)N1CCC[C@H](N1)C(=O)OCC(C)(C)C2 [Compound A291] | 10 to 100 nM | –
< 5000 nM | 100 to 1000 nM | 0.01 to 0.1 µM | CCn1c(-c2cccnc2[C@H](C)OC)c2c3cc(ccc31)-c1cc(O)cc(c1)C[C@H](NC(=O)[C@H](C(C)C)N(C)C(=O)C1CN3CCCN1CC3)C(=O)N1CCC[C@H](N1)C(=O)OCC(C)(C)C2 (some centres unmarked) [Compound A404] | > 10000 nM | –
< 5000 nM | 100 to 1000 nM | 0.01 to 0.1 µM | CCn1c(-c2cccnc2[C@H](C)OC)c2c3cc(ccc31)-c1cc(O)cc(c1)C[C@H](NC(=O)[C@H](C(C)C)N(C)C(=O)C1CNCCNC1)C(=O)N1CCC[C@H](N1)C(=O)OCC(C)(C)C2 [Compound A432] | – | –
